According to patent publication US6747135B1, “Fluorescent dye binding peptides” (The Board of Trustees for the Leland Stanford Junior …, priority 1998, dated 2004):
“Also recorded” adds a separate entry of the source.

How the values were obtained:
[1] = Phage binding to Rhodamine Red carrier beads, plaque assay of bound phage; conditions: for Kd: phage clone, Rhodamine Red carrier beads
Experimental: (§1) These mutations may be important for increasing the overall affinity of the peptide fluorette-fluorophore interaction. We tested one of each of the phage from the secondary screens for increases in avidity (Table 3). PEG-purified TR401 phage, TRS311 phage or the amplified Ph.D.-12 phage display peptide library phage as a negative control (input 1.5×10^8-1.1×10^10 pfu with 2 to 5-fold increments) were incubated with 23.5 μl of BSA-blocked and washed Texas Red carrier beads in binding buffer (see above) in total volume 40 μl for 3 hr. Beads suspensions were centrifuged, the supernatants (unbound phage) were titrated and dissociation constants were measured via a standard linear Scatchard plot. For TR401 and TRS311 phage bound/unbound ratios were quite reliable (6.3-13.1 in the range of phage concentrations shown above). All binding experiments were performed in duplicate and titrations were performed in triplicate. […] For higher Kd, bound/unbound ratios became unreliable (=1).
(§2) Other PEG-purified phage (input 5×10^8-2.5×10^10 pfu with 2 to 5-fold increments) were bound to the respective fluorophore dye carriers essentially in the same manner as described above for Texas Red-specific phage. RhR401 and RhRS308, OG403 and OGS316, OG402 and FluS303 phage, were bound to the Rhodamine Red, Oregon Green 514 or Fluorescein carriers, respectively. Following binding the beads were quickly washed twice by 0.25 ml of TBS+0.1% Tween-20 and suspended in 10 ml TBS. 10 μl of suspension was mixed with ^−2×10^8 log-phase ER2537 cells and incubated 1 hr at 4° C. with slight shaking to allow phage adsorption. Several ten-fold dilutions of infected cells were mixed with noninfected ER2537 cells and plated in standard plaque assay (Sambrook et al., supra). All binding experiments and titrations were accomplished in duplicate. […] For all above phage pfu/particle ratio was in the range 0.4-0.5.

[2] = Phage binding to Oregon Green 514 carrier beads, plaque assay of bound phage; conditions: for Kd: phage clone, Oregon Green 514 carrier beads
Experimental: as §1, §2

[3] = Phage-free fluorophore dye binding in solution (PEG precipitation, filter scan); conditions: vs unselected library phage
From the text: FIG. 3. Phage-fluorophore dye binding. Fluorophore dye-specific OG403, OG402, RhR401 and TR401 phage were bound to Oregon Green 514, Fluorescein, Rhodamine Red and Texas Red “free” dyes, respectively (see text). The normalized particle amounts of amplified Ph.D.-12 phage display peptide library (nonspecific phage) were bound in solution with the same dyes as controls. Phage-fluorophore dye complexes were precipitated three times by PEG to remove unbound dye and spotted to a nitrocellulose filter. The filter was scanned on the Storm 840 scanner (Molecular Dynamics). The presented data is from a single scan and image enhancements were done simultaneously on the complete set of dye binding results using NIH Image 1.59 software. Specific/nonspecific signal ratios were quantified by densitometry of spot images using NIH Image 1.59 software (see Materials and Methods for details). All binding experiments shown were completed in duplicate. Densitometry was carried out prior to contrast enhancement. Brightness and contrast values were modified to 50 and 65, respectively in Adobe Photoshop. Individual elements of the figure were arranged as a composite from the same original scan from which the binding ratios were determined.
Four activated derivatives of fluorophore dyes (see above) were quenched in 0.5M Tris-HCl, pH 8.7 and used as “free” dyes. Ten μl of PEG-purified and 300-fold concentrated phage TR401, RhR401, OG402, OG403 (1.3-1.8×10^12 phage particles; calculated from optical densities of the purified phage at 260 and 280 nm) in TBS+0.05% sodium azide buffer were separately mixed with an equal volume of 20 μM solution of the corresponding free dyes in the same buffer; mixtures were adjusted by Tween-20 to 0.1% and incubated for 3 hr. Phage-fluorophore dye complexes were precipitated three times by PEG-8000 in order to remove unbound dye and dissolved in 6.6 μl of TBS+0.05% sodium azide buffer. Finally, phage-fluorophore dye complexes (1 μl of each) were spotted to nitrocellulose filter and filter was scanned on the Storm 840 scanner (Molecular Dynamics) in Blue Fluorescence/Chemifluorescence mode with 200 μ pixel resolution. To determine nonspecific binding the normalized amounts of phage particles of amplified, unselected, and PEG-purified Ph.D.-12 phage display peptide library were separately incubated with the corresponding free dyes and treated in the same conditions. All binding experiments were accomplished in duplicate. Specific/nonspecific signal ratios were quantified by densitometry of spot images using “Measure” option of NIH Image 1.59 freeware package.

[4] = Dye binding to peptide-coated cobalt Sepharose beads, fluorescence microscopy; conditions: 0.5 μM Texas Red in TBS, 1 hr, RT
Experimental: FIG. 6. Texas Red-specific peptide PepTR401 (Panel A), PepTRS311 (Panel B), PepTR406 (Panel C) and nonspecific PepControl (Panel D) (see peptide sequences in Table 4) were bound via His6 tag to cobalt ion-containing Sepharose beads. The peptide coated beats were washed and incubated with 0.5 micromolar Texas Red in TBS for 1 hour at room temperature followed by several washings of beads in order to remove unbound dye. Fluorescent and nonflourescent control beads were photographed on fluorescent microscope Axiophot (Zeiss) using Rhodamine Red/Texas Red filter with the same time exposure for every sample. All binding experiments were accomplished in three parallels and results of a single experiments are shown.
Peptides were bound to cobalt ion-coated Sepharose beads and the resultant peptide-coated beads were incubated with corresponding fluorophore dyes, washed, and visualized for dye binding. The same amounts of Texas Red-specific peptides PepTR401, PepTRS311, PepTR406 as well as nonspecific peptide PepControl (see Table 4) were bound via His6 tag to the TALON Metal Affinity Resin (Clontech) in TBS buffer essentially as described by manufacturer's protocol. Beads (5 μl) were washed twice with 0.5 ml TBS to remove unbound peptide and incubated with 0.5 μM Texas Red in 40 μl of TBS buffer for 1 hr at RT. Finally, the beads were washed three times with 0.3 ml TBS to remove unbound dye. Fluorescent and nonfluorescent control beads were photographed with 10-fold magnification on fluorescent microscope Axiophot (Zeiss) using Rhodamine Red/Texas Red filter with 5″ exposure.

[5] = as above; conditions: Fluorescein
[6] = Peptide-Texas Red binding in solution, excitation and emission spectra; conditions: for peak emission shift / peak excitation shift: 10 μM peptide, 50 nM Texas Red, TBS, 1 hr RT; for changes in peak excitation or emission: concentrated peptide with 50 nM Texas Red
Experimental: FIGS. 5A and 5B. Peptide—Texas Red binding. Excitation and emission spectra. Peptides at the noted concentrations were incubated with Texas Red (50 nM), or without, in 0.6 ml of TBS for 1 hr at room temperature (RT). Samples were scanned on a spectrofluorimeter (SPEX Fluoromax (Jobin Yvon-SPEX Instruments Co.)). Excitation and excitation/emission peak shifts for PepTR401(10 μM)/Texas Red and PepTRS311 (10 μM)/Texas Red complexes, respectively (A), were reproducible in three independent experiments. The results of a single experiment are presented.
(§3) The above test only checks for bound dye that remains fluorescent at the wavelengths tested. Binding of fluorophore dyes to specific peptides might result in changes in the fluorescence spectra of bound dye versus the spectra of free dye. Or, one might observe an increase or quenching of fluorescence. We mixed concentrated peptide with 50 nM of the corresponding dye in solution and determined the excitation and emission spectra of the resulting mixture.
We attempted with these findings to obtain an affinity measurement for the higher affinity TRS311 peptide. Peptides in different concentrations (1.3-20 μM) were incubated with Texas Red (50 nM) in 0.6 ml of TBS buffer for 1 hr at RT. Excitation and emission spectra of samples were obtained by using spectrofluorimeter SPEX Fluoromax (Jobin Yvon-SPEX Instruments Co.) and DataMax software package. Peak positions were automatically calculated by software. List mode data was saved for other analyses.

[7] = Peptide-Fluorescein binding in solution, excitation and emission spectra; conditions: peptide with 50 nM Fluorescein
Experimental: as §3

[8] = Dye binding to peptide-coated cobalt Sepharose beads, fluorescence microscopy; conditions: Oregon Green 514
[9] = Phage binding to Fluorescein carrier beads, plaque assay of bound phage; conditions: for Kd: phage clone, Fluorescein carrier beads
Experimental: as §1, §2

[10] = Binding affinity of phage clones carrying SKVILFE-flanked fluorettes; conditions: phage clone, SKVILFE-flanked fluorette
[11] = Binding affinity of synthetic constrained peptides to Texas Red; conditions: for Kd: synthetic SKVILFE-flanked peptide; for fold more avid than linear TR401 and TRS311 peptides: synthetic constrained vs linear peptides
[12] = Cross-binding of Texas Red-selected phage to the inappropriate dye carrier; conditions: TR-4 phage on Rhodamine Red carrier, vs nonspecific phage background
From the text: (§4) We tested the binding specificity and excluded the possibility that the TR401 and RhR401 phage were selected against the polymer linker moiety rather than a fluorophore dye moiety of the dye carriers. The TR-4 and RhR-4 phage were cross-bound to Rhbdamine Red and Texas Red carriers, respectively. […] Thus the TR401 and RhR401 fluorettes are specific by this comparison for their respective conjugated dyes, despite the similarity of the compound core ring structures. Second, they had affinity for the corresponding conjugated fluorophore dyes rather than only a polymer linker moiety of Texas Red and Rhodamine Red carriers or other chemical features of the carriers themselves.

[13] = Phage direct binding to Texas Red carrier beads, Scatchard plot; conditions: phage clone (5 pIII-fluorette copies, avidity), 3 hr
Experimental: as §1

[14] = Cross-binding of Rhodamine Red-selected phage to the inappropriate dye carrier; conditions: RhR-4 phage on Texas Red carrier, vs nonspecific phage background
From the text: as §4

IPHRPMYWTPVF [RhRS308]
Affinity increase (fold) ([1]; mutant fluorette phage vs parental RhR401 phage): not even marginally improved; also recorded: no increase | Kd [1]: 21.5 nM

HGWDYYWDWTAW [OG403]
Kd [2]: 6.4 nM | phage binding of free fluorophore dye in solution ([3]; free Oregon Green 514, 3 hr): specifically bound

KHVOYWTOMFYSGGGSAETVGGGHHHHHH (KHVQYWTQMFYSGGGSAETVGGGHHHHHH; fluorette) [PepTR401]
dye binding to peptide-coated beads [4]: significant binding | dye binding to peptide-coated beads [5]: bound to neither Oregon Green 514 nor Fluorescein | peak emission shift [6]: no emission shift change | peak excitation shift [6]: +1.9 nm | shift in Fluorescein excitation or emission spectra [7]: no shift | dye binding to peptide-coated beads [8]: bound to neither Oregon Green 514 nor Fluorescein

YPNEFDWWDYYY [FluS303]
Affinity increase (fold) ([9]; mutant fluorette phage vs parental OG402 phage): 6.5 fold | Kd [9]: 2.7 nM

EPMARPWERKQDR [TRP527]
Kd [10]: > 5 nM

synthetic SKVILFE-flanked Texas Red-specific peptide with His6 tag (SEQ ID NO:120) (GGGSKVILFEGPAGRTIWEPKEASNHTGAPGSKVILFEGGPGHHHHHH) [TRP501 peptide]
Kd [11]: ~200 nM | fold more avid than linear TR401 and TRS311 peptides [11]: ≈ 8 fold

GNQKCLQHNRCST [TRP518]
Kd [10]: > 5 nM

KHVQYWTQMFYS [TR401]
binding specificity, cross-binding to inappropriate dye carrier [12]: specific | Kd [13]: 0.27 nM | phage binding of free fluorophore dye in solution ([3]; free Texas Red, 3 hr): specifically bound

RTIWEPKEASNHT [TRP501]
Kd [10]: 0.08 nM

synthetic SKVILFE-flanked Texas Red-specific peptide with His6 tag (SEQ ID NO:121) (GGGSKVILFEGPAGRWTWEPISEGAPGSKVILFEGGPGHHHHHH) [TRP512 peptide]
Kd [11]: ~10 nM | fold more avid than linear TR401 and TRS311 peptides [11]: ≈ 160 fold

ASGSGASGSAGSGGGSAETVGGGHHHHHH [control peptide, reference compound]
changes in peak excitation or emission [6]: No detectable changes

YPNDFEWWEYYF [OG402]
Kd [9]: 17.4 nM | phage binding of free fluorophore dye in solution ([3]; free Fluorescein, 3 hr): specifically bound

IPHPPMYWTRVF [RhR401]
binding specificity, cross-binding to inappropriate dye carrier [14]: specific | phage binding of free fluorophore dye in solution ([3]; free Rhodamine Red, 3 hr): specifically bound | Kd [1]: 23 nM

WSKMGHTVT [TRP505]
Kd [10]: > 5 nM

GTLSATRPYGRQW [TRP541]
Kd [10]: > 5 nM

RWTWEPISE [TRP512]
Kd [10]: 0.025 nM

KPVQYWTQMFYT [TRS311]
Kd [13]: 0.09 nM

HEWEYYWDWTAW [OGS316]
Affinity increase (fold) ([2]; mutant fluorette phage vs parental OG403 phage): 2.7 fold | Kd [2]: 2.4 nM

SQTWSFPEH [TRP526]
Kd [10]: > 5 nM

DFLOWKLAROKPGGGSAETVGGGHHHHHH (DFLQWKLARQKPGGGSAETVGGGHHHHHH; fluorette) [PepTR406]
dye binding to peptide-coated beads [4]: did not bind | changes in peak excitation or emission [6]: No detectable changes

KPVOYWTOMFYTGGGSAETVGGGHHHHHH (KPVQYWTQMFYTGGGSAETVGGGHHHHHH; fluorette) [PepTRS311]
dye binding to peptide-coated beads [4]: significant binding | dye binding to peptide-coated beads [5]: bound to neither Oregon Green 514 nor Fluorescein | peak emission shift [6]: 1.4 nm | peak excitation shift [6]: ~+2.8 nm | Kd ([6]; calculated roughly from peak shifts, peptide 1.3-20 μM, Texas Red 50 nM, read-out: affinity of the peptide for the fluorophore): 100 to 500 nM | change in peak excitation position on reducing peptide concentration ([6]; peptide from 10 μM to 1.3 μM, Texas Red 50 nM): reduced slightly, but not completely | dye binding to peptide-coated beads [8]: bound to neither Oregon Green 514 nor Fluorescein
